How the values were obtained:
[1] = system: rat BMSCs (rBMSCs); test: BrdU proliferation assay in rBMSCs; type: cell-based; details: 1 nM
Experimental: (§1) Rat and mouse bone marrow stromal cells (BMSCs) were seeded at a density of 4000 cells/well in a 96-well plate for cell proliferation and treated with 1 nM of MTZ for 48 h in a growth medium (α-MEM containing 10% FBS). Following the MTZ treatment, the cells were incubated for 4 h with bromodeoxyuridine (BrdU) before termination. Cell proliferation was assessed at 450 nm using the Roche Diagnostics BrdU ELISA kit, in accordance with the manufacturer’s protocol, using a reference wavelength of 690 nm.

[2] = system: Rat Calvarial Osteoblasts (RCOs); test: ALP assay (osteoblast differentiation) in rat calvarial osteoblasts; type: cell-based
Experimental: Sequential digestion was performed to isolate calvarial osteoblast cells from neonatal rat pups. Briefly, calvariae were harvested from ten to twelve 1–2-day old rat pups, cleaned, and subjected to five sequential enzymatic digestions (0.1% dispase and 0.1% collagenase I) of 10–15 min each, followed by culturing of the harvested cells in α-MEM supplemented with 10% FBS [22].
RCOs were seeded in 24-well plates (1 × 10^4 cells/well), and the cells were treated for 48 h in osteoblast differentiation media (α-MEM supplemented with 10 mM β-glycerophosphate and 50 μg/mL ascorbic acid) with the imidazole group of chemicals (10^−11 M–10^−6 M).
A total of 2 mg/mL of para-Nitrophenyl phosphate in diethanolamine buffer was used to measure the ALP activity at a 405 nm wavelength.

[3] = system: β-catenin nuclear translocation in osteoblasts (RCO); test: Immunofluorescence of β-catenin nuclear translocation in RCO; type: cell-based, rat; details: 10 nM
Experimental: RCOs were grown on Lab-Tek Chamber Slides (Nunc, Penfield, NY, USA) to 40–50% confluence for 24 h. After treatment with MTZ at different time points, cells were fixed with 4% formaldehyde, followed by permeabilization with 0.1% Triton™ X-100 for 15 min, blocked with 2% goat serum for 2 h, and labeled with primary antibody against β-catenin (Cell Signaling Technology, Danvers, MA, USA, catalog number 9562S) (1:100) overnight at 4 °C in a moist chamber. Alexa Fluor® 594 (Abcam, Cambridge, UK, catalog number ab150080) was used as a secondary antibody (1:200 dilution) for 2 h at room temperature. […]

[4] = system: Wnt/β-catenin signaling (TOP-Flash reporter, HEK293T cells); test: Wnt/β-catenin TOP-Flash reporter assay; type: cell-based; details: 24 h
Experimental: The effect of MTZ on β-catenin signaling was assayed using a TOP-Flash reporter plasmid that contained a minimal TA viral promoter coupled to β-catenin-responsive TCF/LEF-binding sites upstream of a firefly luciferase gene (a kind gift from Prof. Yosef Yarden, WIS, Israel). Briefly, HEK293T cells were transfected with 0.5 μg of the TOP-Flash plasmid. Additionally, the GFP-encoding plasmid, pEGFP, was transfected as a control for transfection efficiency. […] In white opaque plates, the lysate and 100 μL of luciferase assay buffer (10 mM KH2PO4, 2 mM ATP, 1 mM D-luciferin, NaCl, and MgCl2) were added, and luminescence was measured. Luminescence values were normalized by EGFP plasmid fluorescence value, and the fold-change was calculated relative to the control.

[5] = system: mouse BMSCs (mBMSCs); test: BrdU proliferation assay in mBMSCs; type: cell-based; details: 1 nM
Experimental: as §1

[6] = system: serum P1NP and CTX-I of OVX rats; test: OVX osteopenia model, serum bone turnover markers (ELISA); type: in vivo, SD rats; details: 235 mg/kg oral, 3 months
Experimental: The 10-month-old (265 ± 20 g) SD rats were ovariectomized (OVX) bilaterally and left for 3 months to develop osteopenia. Ovary-intact sham-operated animals were used as a control. A live animal micro-CT was performed to confirm osteopenia, followed by dividing the animals into 3 groups: Sham + vehicle (water, oral), OVX + vehicle (water, oral), and OVX + MTZ (235 mg/kg, oral). Each group had 9 rats, and treatment were administered for 3 months. Calcein (20 mg/kg, s.c.) was injected twice before sacrificing at 10-day intervals. The levels of serum procollagen type I N-terminal peptide (P1NP) and serum cross-linked C-telopeptide of type I collagen (CTX-I) were assessed using ELISA (MyBioSource, San Diego, CA, USA), in accordance with the manufacturer’s protocol.

[7] = system: GSK3β phosphorylation in RCO; test: Western blotting of p-GSK/GSK in RCO; type: cell-based, rat; details: 10 nM
Experimental: Western blotting was performed as previously described. Briefly, whole-cell extracts (WCEs) were prepared at indicated time points using RIPA lysis buffer, and aliquots of 30 μg protein per lane were loaded and resolved on SDS-PAGE (10%), followed by blotting onto the PVDF membrane (Millipore Inc., Burlington, MA, USA). The membrane was blocked in 1% BSA, followed by immunoblotting with primary antibodies: Runx2 (ab 76956) (1:1000), pGSK (9323S) (1:1000), and GSK (9315S) (1:1000) at 4 °C overnight. Anti-rabbit HRP secondary antibody (Sigma, catalog number A0545) (1:3000) was used for Runx2, pGSK3β, and GSK3β. Bands were detected by incubating the membranes with ECL substrate (Thermo Fisher Scientific, Waltham, MA, USA) and developed on ChemiDoc (Image Quant LAS 4000, GE Healthcare, Hatfield, UK). Blots were re-probed after washing with mild stripping buffer (1.5% Glycine, 0.1% SDS, and 1% Tween 20).

EC50 ([2]; Rattus norvegicus, Calvarial osteoblast, 48 h in osteoblast differentiation media): 1.2 nM
Compound: Cc1ncc([N+](=O)[O-])n1CCO [Metronidazole]
Proliferation (BrdU incorporation) [1]: did not affect | Activity in ALP Assay (Positive/Negative) ([2]; 48 h): Positive | Effect on ALP activity compared to the control (vehicle) ([2]; 48 h): significantly increased | β-catenin nuclear translocation [3]: induced | TOP-Flash reporter activity [4]: increased | Proliferation (BrdU incorporation) [5]: did not affect | Serum bone formation marker P1NP levels [6]: restored | Serum resorption marker CTX-1 [6]: failed to reduce it | GSK3β phosphorylation [7]: increased GSK3β phosphorylation in a time-dependent manner | Time of maximum effect on GSK3β phosphorylation [7]: 15 min
